Target: T1, HBV genotype D RNAseH (HRHPL) (Hepatitis B virus genotype D subtype ayw, UniProt P03156, INS679M)
T1 construct: HRHPL contains HBV genotype D (Genbank V01460) polymerase residues 684-845; made in house; host or cells: E. coli BL21 codon+
Test: Oligonucleotide-directed RNAseH cleavage assay, HBV genotype D
Assay type: biochemical
Conditions: class by concentration giving inhibition (10, 20, 60 μM)
Protocol: For the oligonucleotide-directed RNAseH cleavage assay (Gong et al., 2001), 6 μl protein extract (typical protein concentration 2.8 mg/ml) was mixed with 0.5 μg internally ^32P-labeled DRF+ RNA (nucleotides 2401-2605 of the duck HBV genome plus 60 nucleotides of flanking sequences from pBluescript) and 3 μg oligonucleotide D2507- or its corresponding negative control D2526+ on ice in 20 μl under the conditions in Table 1. Some reactions in FIG. 5 employed oligonucleotide D2543M-Sal or its D2453+ negative control as indicated. The reactions were incubated at 42° C. for 90 min. and terminated by addition of Laemmli protein loading buffer and boiling. The samples were resolved by 12% SDS-PAGE, the gels were stained with Coomassie blue to monitor protein loading, and labeled RNA was detected by autoradiography. Candidate inhibitors were dissolved in DMSO and added at the indicated concentrations during assembly of the reactions. Control reactions lacking the compounds contained DMSO as a vehicle control. The RNAseH autoradiograms were scanned and quantified with ImageJ.
Oligonucleotide-directed RNAseH cleavage assays (Gong et al., 2001) were performed as described (Tavis et al., 2013). Briefly, HBV RNAseH extracts were mixed with a 264 nt-long internally ^32P-labeled RNA plus an excess of a complementary DNA oligonucleotide or its inverse-complement as a negative control in a final concentration of 65 mM Tris pH 8.0, 190 mM NaCl, 5 mM MgCl2, 5 mM dTT, 0.05% NP40, and 6% glycerol. βTJ was dissolved in DMSO and added at the indicated concentrations; the final concentration of DMSO in all reactions was 1%. The reactions were incubated at 42° C. for 90 min. and terminated by addition of Laemmli protein electrophoresis buffer. The samples were resolved by SDS-PAGE, labeled RNA was detected by autoradiography, the autoradiograms were scanned, and the RNA cleavage products were quantified with ImageJ (National Institutes of Health). IC50 values were calculated by non-linear regression using GraphPad Prism (GraphPad Software, Inc.).

T1 sequence (P03156 680-832, added parts left off, stated change not applied): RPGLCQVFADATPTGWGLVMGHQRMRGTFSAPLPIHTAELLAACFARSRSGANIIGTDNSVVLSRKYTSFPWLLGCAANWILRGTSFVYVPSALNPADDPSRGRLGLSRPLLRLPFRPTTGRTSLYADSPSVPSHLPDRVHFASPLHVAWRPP

Row | Structure (SMILES) | Activity vs. HBV Biochemical vs. gtD
1 | Cn1c(C(C)(C)N)nc(C(=O)NCc2ccc(F)cc2)c(O)c1=O [Compound 77, reference compound] | − (− no inhibition at 60 μM)
2 | CCn1cc(C(=O)O)c(=O)c2cc3c(cc21)OCO3 [Compound 65] | − (− no inhibition at 60 μM)
3 | CCOC(=O)c1sc(NC(=O)CSc2nc(C)cc(-c3ccccc3)n2)c(C#N)c1C [Compound 26] | − (− no inhibition at 60 μM)
4 | CC1COc2c(N3CCN(C)CC3)c(F)cc3c(=O)c(C(=O)O)cn1c23 (stereo not drawn) [Compound 68] | − (− no inhibition at 60 μM)
5 | O=c1cccccc1Cl [Compound 57, 2-chlorotropone] | − (− no inhibition at 60 μM)
6 | CCOC(=O)c1sc(NC(=O)CSc2nccc(C)n2)c(C#N)c1C [Compound 27] | − (− no inhibition at 60 μM)
7 | CCOC(=O)c1sc(NC(=O)CSc2ccc(Cl)cc2)c(C#N)c1C [Compound 37] | − (− no inhibition at 60 μM)
8 | O=C(Oc1cccccc1=O)c1ccccc1 [Compound 62] | + (+ inhibition at 60 μM)
9 | O=C(Oc1cccccc1=O)c1ccc(Cl)cc1 [Compound 63] | − (− no inhibition at 60 μM)
10 | Cc1cc(C(F)(F)F)c(C#N)c(=O)[nH]1 [Compound 19] | − (− no inhibition at 60 μM)
11 | N#Cc1cc2ccccc2oc1=N [Compound 21] | − (− no inhibition at 60 μM)
12 | CCOC(=O)c1sc(NC(=O)CSc2nnc(-c3ccc(Cl)cc3)o2)c(C#N)c1C [Compound 24] | − (− no inhibition at 60 μM)
13 | O=C(Oc1cccccc1=O)c1ccc([N+](=O)[O-])cc1 [Compound 51, tropolone p-nitrobenzoate] | + (+ inhibition at 60 μM)
14 | CCn1cc(C(=O)O)c(=O)c2ccc(C)nc21 [Compound 70] | − (− no inhibition at 60 μM)
15 | N#Cc1c(NC(=O)CSc2nnc(Cc3ccccc3)o2)sc2c1CCCC2 [Compound 25] | − (− no inhibition at 60 μM)
16 | N#Cc1c(NC(=O)CSc2nnc(C3CC3)o2)sc2c1CCC2 [Compound 32] | − (− no inhibition at 60 μM)
17 | O=C(O)c1cn(C2CC2)c2cc(Cl)c(F)cc2c1=O [Compound 66] | − (− no inhibition at 60 μM)
18 | O=c1ccccc(Br)c1O [Compound 54, 3-bromotropolone] | − (− no inhibition at 60 μM)
19 | Cc1ccc2oc(=O)c(C#N)c(C)c2c1 [Compound 33] | − (− no inhibition at 60 μM)
20 | CCN1C[C@H](C)n2c(c(O)c3c(=O)n(Cc4ccc(F)c(Cl)c4)nc(C(=O)NC)c32)C1=O [Compound 74, reference compound] | − (− no inhibition at 60 μM)

Same assay, conditions: irrelevant compounds at 10 μM, pooled

Row | Structure (SMILES) | RNAseH activity of HRHPL relative to the DMSO vehicle control [%]
21 | CC(C)S[C@@H]1O[C@H](CO)[C@H](O)[C@H](O)[C@H]1O [IPTG, reference compound] | 52±9
